This is an account of results in paper PMC12022751, “In vitro and in silico analysis of synthesized N-benzyl indole-derived hydrazones as potential anti-triple negative breast cancer agents” (RSC Advances, 2025).

What all share (type): cell-based, human
Data set [1] relates to MDA-MB-231 breast cancer cell line. Kind of data set: MTT cytotoxicity assay on MDA-MB-231. To be noted: 48 h incubation; for Viability (%) Breast cancer cell line (MDA-MB-231): test concentration for viability not stated (6.5-50 μM tested); for IC50: triplicate. The procedure:
(§1) All synthesized compounds (5a–5v) were tested using MTT assay at various concentrations (6.5 μM, 12.5 μM, 25 μM, and 50 μM) on the human breast cancer cell line MDA-MB-231. The cytotoxicity of the synthesized analogues was also assessed using human normal breast epithelial cell lines MCF-10A. Table 1 denotes IC50 values, percent inhibition, and cell viability for compounds 5a–v on MDA-MB-231. The dose–response analysis and calculations of IC50 values were performed using IBM SPSS statistics 26. The MTT assay on MDA-MB-231 confirmed the anticancer potential of all compounds. […] We then followed the same protocol as the cancer cells for the non-tumorigenic MCF-10A cells but with different concentrations (6.5 μM, 12.5 μM, 25 μM, and 50 μM). This was done to determine whether the toxic effects of the chemicals were selective for cancer cells compared to non-cancerous cells.
(§2) The in vitro cytotoxicity of the synthetic derivatives was evaluated using an MTT assay against a breast cancer cell line (MDA-MB-231).[33] The normal human breast cell line (MCF-10A) was maintained as a control in this study.[34,35] The cells were grown in DMEM with 10% FBS and 1% antibiotics (100 U mL^−1 penicillin). They were plated in a 96-well plate at a density of 1.0 × 10^4 cells per well and incubated for 24 hours at 37 °C in a 5% CO2 atmosphere. After discarding the medium, both cell lines were treated with various concentrations (6.5 μM, 12.5 μM, 25 μM, and 50 μM) of synthetic triazole derivatives.[36] After 48 h of incubation, [37] 20 μL of MTT solution (5 mg mL^−1) was added to each well and incubated for an additional 4 hours. After incubation, the medium was removed, and the formazan precipitate was dissolved in DMSO. The absorbance of the mixture was then measured at 570 nm using a microplate reader. All experiments were performed in triplicate, and the cytotoxicity was expressed as a percentage of cell viability compared to untreated control cells as per an earlier reported protocol by Sakhi et al.:[36]1 [drawing 1]

Data set [2] can be described thus: MTT cytotoxicity assay on normal MCF-10A cells. The note with it: human, MCF-10A normal breast epithelial cells, 48 h incubation, test concentration for viability not stated (6.5-50 μM tested), read-out: Viability (%) Normal cell line (MCF-10A). The procedure: as §1, §2
In data set [3] the test system is MCF-10A normal breast epithelial cell line. Nature of the data set: MTT cytotoxicity assay on normal MCF-10A cells. To be noted: Homo sapiens, MCF-10A, 48 h incubation. The procedure: as §1, §2
In general terms: Tetrazolium assays rely on reduction of a dye to a coloured formazan, in cell work by metabolically active cells.

In general, IC50 refers to the point on the concentration scale where inhibition reaches its midpoint. In general, viability refers to a read-out of living cells in per cent, often relative to untreated cells. Take `COc1ccc(C(=O)NN=Cc2cn(Cc3ccccc3)c3ccccc23)cc1` [Compound 5a, (E)-N′-[(1-benzyl-1H-indol-3-ylmethylene]-4-methoxybenzohydrazide]: in data set [1], the “Viability (%) Breast cancer cell line (MDA-MB-231)” value is recorded as 32.45%. Moreover, the IC50 is 25.6 ± 0.4 µM in data set [1] (Homo sapiens, MDA-MB-231, 48 h) and greater than 50 µM in data set [3]. The viability at 48 h in data set [2] is 82.7%.
The matching figures for `O=C(Cc1ccc(F)cc1F)NN=Cc1cn(Cc2ccccc2)c2ccccc12` [Compound 5q, (E)-N′-[(1-benzyl-1H-indo1-3-yl)methylene]-2-(2,4-difluorophenypacetohydrazide]: 41.09%, 37.6 ± 0.2 µM, greater than 50 µM and 79.5%.
The matching figures for `O=C(NN=Cc1cn(Cc2ccccc2)c2ccccc12)c1ccc(Br)cc1` [Compound 5f, (E)-N′-[(1-benzyl-1H-indo1-3-yl)methylene]-4-bromobenzohydrazide]: 25.05%, 21.8 ± 0.2 µM, greater than 50 µM and 82.4%.
For `Cc1ccc(C(=O)NN=Cc2cn(Cc3ccccc3)c3ccccc23)cc1F` [Compound 5c, (E)-N′-((l-benzyl-1H-indo1-3-yl)methylenel-3-fluoro-4-methylbenzohydrazide] the same measures were 37.40%, 27.1 ± 0.4 µM, greater than 50 µM and 85.7%.
As to `O=C(Cc1ccc(C(F)(F)F)cc1)NN=Cc1cn(Cc2ccccc2)c2ccccc12` [Compound 5d, (E)-N′-[(1-benzyl-1H-indo1-3-yl)methylene]-2-(4(trifluoromethyl)phenyl)acetohydrazide], the “Viability (%) Breast cancer cell line (MDA-MB-231)” value in data set [1] is 27.94%. In addition, the IC50 in data set [1] (Homo sapiens, MDA-MB-231, 48 h) was 22.6 ± 0.8 µM; in data set [3] it was greater than 50 µM. Moreover, the viability at 48 h in data set [2] came out at 80.2%.
The matching figures for `O=C(NN=Cc1cn(Cc2ccccc2)c2ccccc12)c1cc2ccccc2cc1O` [Compound 5g, (E)-N′-[(1-benzyl-1H-indo1-3-yl)methylene]-3-hydroxy-2-naphthohydrazide]: 29.76%, 24.4 ± 0.6 µM, greater than 50 µM and 81.8%.
The matching figures for `O=C(NN=Cc1cn(Cc2ccccc2)c2ccccc12)c1ccccc1Br` [Compound 5m, (E)-N′-[(1-benzyl-1H-indo1-3-yl)methylene]-2-bromobenzohydrazide]: 29.14%, 26.4 ± 0.2 µM, greater than 50 µM and 87.2%.
For `O=C(Cc1cc(F)ccc1F)NN=Cc1cn(Cc2ccccc2)c2ccccc12` [Compound 5s, (E)-N′-[(1-benzyl-1H-indo1-3-yl)methylene]-2-(2,5-difluorophenyl)acetohydrazide] the same measures were 38.14%, 29.4 ± 0.8 µM, greater than 50 µM and 86.3%.
As to `O=C(NN=Cc1cn(Cc2ccccc2)c2ccccc12)c1ccncc1` [Compound 5k, (E)-N′-[(1-benzyl-1H-indo1-3-yl)methylene]isonicotinohydrazide], the “Viability (%) Breast cancer cell line (MDA-MB-231)” value in data set [1] is 23.44%. For the same compound, the IC50 in data set [1] (Homo sapiens, MDA-MB-231, 48 h) was 21.4 ± 0.2 µM; in data set [3], greater than 50 µM. In data set [2], the viability at 48 h worked out at 80.1%.
The matching figures for `O=C(NN=Cc1cn(Cc2ccccc2)c2ccccc12)c1ccccc1Cl` [Compound 5o, (E)-N′-((l-benzyl-1H-indo1-3-yl)methylenel-2-chlorobenzohydrazide]: 20.37%, 19.6 ± 0.5 µM, greater than 50 µM and 82.3%.
`O=C(NN=Cc1cn(Cc2ccccc2)c2ccccc12)c1cccnc1` [Compound 5e, (E)-N′-[(1-benzyl-1H-indo1-3-yl)methylene]nicotinohydrazide]: the “Viability (%) Breast cancer cell line (MDA-MB-231)” value in data set [1] is reported as 31.47%. In addition, the IC50 in data set [1] (Homo sapiens, MDA-MB-231, 48 h) was 28.2 ± 0.5 µM; in data set [3] it was greater than 50 µM. The viability at 48 h in data set [2] was found to be 85.7%.
With `O=C(NN=Cc1cn(Cc2ccccc2)c2ccccc12)c1ccco1` [Compound 5i, (E)-N′-[(1-benzyl-1H-indo1-3-yl)methylene]furan-2-carbohydrazide], in data set [1], the “Viability (%) Breast cancer cell line (MDA-MB-231)” value is listed as 23.53%. Further, the IC50 in data set [1] was 19.2 ± 0.4 µM; in data set [1] (Homo sapiens, MDA-MB-231, 48 h), 17.2 ± 0.4 µM; in data set [3], greater than 50 µM. For the same compound, the viability at 48 h in data set [2] was determined as 84.6%.
Consider `O=C(Cc1ccccc1)NN=Cc1cn(Cc2ccccc2)c2ccccc12` [Compound 5n, (E)-N′-(l-benzyl-1H-indo1-3-yl)methylenel-2-phenylacetohydrazide], for which the “Viability (%) Breast cancer cell line (MDA-MB-231)” value in data set [1] worked out at 44.16%. For the same compound, the IC50 in data set [1] (Homo sapiens, MDA-MB-231, 48 h) is 43.4 ± 0.2 µM; in data set [3], greater than 50 µM. Besides, in data set [2], the viability at 48 h turned out to be 79.8%.
The matching figures for `O=C(NN=Cc1cn(Cc2ccccc2)c2ccccc12)c1ccccc1` [Compound 5b, (E)-N′-[(1-benzyl-1H-indo1-3-yl)methylene]benzohydrazide]: 18.56%, 17.2 ± 0.4 µM, greater than 50 µM and 77.1%.
For `O=C(NN=Cc1cn(Cc2ccccc2)c2ccccc12)c1cccc(Cl)c1` [Compound 5j, (E)-N′-[(1-benzyl-1H-indo1-3-yl)methylene]-3-chlorobenzohydrazide] the same measures were 21.87%, 22.6 ± 0.1 µM, greater than 50 µM and 80.8%.
For `O=C(Cc1ccccc1C(F)(F)F)NN=Cc1cn(Cc2ccccc2)c2ccccc12` [Compound 5p, (E)-N′-[(1-benzyl-1H-indo1-3-yl)methylene]-2-(2-(trifluoromethyl)phenypacetohydrazide] the same measures were 25.67%, 24.6 ± 0.1 µM, greater than 50 µM and 83.1%.
Consider `Cc1ccccc1C(=O)NN=Cc1cn(Cc2ccccc2)c2ccccc12` [Compound 5v, (E)-N′-[(1-benzyl-1H-indo1-3-yl)methylene]-2-methylbenzohydrazide], for which the “Viability (%) Breast cancer cell line (MDA-MB-231)” value in data set [1] is 28.11%. Also, the IC50 was 23.1 ± 0.6 µM in data set [1]; 29.4 ± 0.8 µM in data set [1] (Homo sapiens, MDA-MB-231, 48 h); greater than 50 µM in data set [3]. Moreover, the viability at 48 h in data set [2] was 81%.
Regarding `O=C(Cc1cc(F)cc(F)c1)NN=Cc1cn(Cc2ccccc2)c2ccccc12` [Compound 5r, (E)-N′-[(1-benzyl-1H-indo1-3-yl)methylene]-2-(3,5-difluorophenyl)acetohydrazide], the “Viability (%) Breast cancer cell line (MDA-MB-231)” value in data set [1] was 36.18%. Moreover, the IC50 in data set [1] (Homo sapiens, MDA-MB-231, 48 h) is 31.6 ± 0.1 µM; in data set [3] it was greater than 50 µM. Also, the viability at 48 h in data set [2] amounted to 84.1%.
The matching figures for `O=C(NN=Cc1cn(Cc2ccccc2)c2ccccc12)c1cccc2ccccc12` [Compound 5u, (E)-N′-[(1-benzyl-1H-indo1-3-yl)methylene]-1-naphthohydrazide]: 30.59%, 26.6 ± 0.1 µM, greater than 50 µM and 83.6%.
As to `O=C(NN=Cc1cn(Cc2ccccc2)c2ccccc12)c1ccc(C(F)(F)F)cc1` [Compound 5h, (E)-N′-[(1-benzyl-1H-indo1-3-yl)methylene]-4-(trifluoromethyl)benzohydrazide], in data set [1], the “Viability (%) Breast cancer cell line (MDA-MB-231)” value is on record as 33.07%. The IC50 in data set [1] (Homo sapiens, MDA-MB-231, 48 h) is 30.8 ± 0.4 µM; in data set [3], greater than 50 µM. Moreover, the viability at 48 h in data set [2] is 78.1%.
